Values quoted from earlier work as cited in patent publication US8809326B2, “Isoquinolinone Rho kinase inhibitors” (Aerie Pharmaceuticals, Inc., priority 2006, dated 2014).

Columns and labels:
[1] = rat stroke model
[2] = porcine, IL-1 beta-induced, long term treatment

## O=S(=O)(c1cccc2cnccc12)N1CCCNCC1 [fasudil]
[1]
  infarct size: reduce
  neurologic deficit: reduce
[2]
  coronary constrictive remodeling: promote a regression of coronary constrictive remodeling
  coronary stenosis: progressively reduce coronary stenosis
